Patent US7547708B2, “N-sulfamoyl-N′-benzopyranpiperidine compounds and uses thereof” (Solvay Pharmaceuticals, Inc., priority 2005, dated 2009)
pIC50: −log10 of the molar value.

What was measured:
[1] = molecular target: T1, human carbonic anhydrase isoenzyme II (hCA II) (Homo sapiens, UniProt P00918); assay: In vitro inhibition of human carbonic anhydrase isoenzyme II (dansylamide fluorescence); assay type: binding; conditions: hCA II from erythrocytes 10^-7 M, dansylamide 2.25x10^-6, 60 min at 37° C., single measurements; read-out: hCA II inhibiting effect in vitro, IC50
T1 construct: human carbonic anhydrase isoenzyme II from erythrocytes (Sigma-Aldrich); purchased Sigma-Aldrich; host or cells: human erythrocytes (natural source)
Procedure: 1. In vitro Inhibition of Human Carbonic Anhydrase Isoenzyme II (hCA II)
The test compounds of general Formula I in 96 well microplates were diluted with aqua bidest by using an automatic pipettor (CyBiWell®). From the different dilution plates, aliquots of 20 μl were transferred to the 96 well black assay plates with a pipetting station (Tecan Genesis®). In a second step, 148 μl of potassium phosphate buffer (20 mM, pH 7.4) was added, and as a third step, 20 μl of enzyme solution (1 μM human carbonic anhydrase isoenzyme II from erythrocytes (Sigma-Aldrich), dissolved in potassium phosphate buffer) incubated for 60 min at room temperature and the fluorescence signal (Tecan Ultra® fluorescence reader; excitation wavelength: 280 nm; emission wavelength: 465 nm) read at the end of the preincubation period (FLU-1). After the preincubation time, 20 μl of aqueous dansylamide solution (1 mM dansylamide (Sigma-Aldrich), dissolved in hydrochloric acid) were added and the fluorescence signal read every 10 min for a period of 60 min at 37° C. For calculation, the fluorescence data of the time point 60 min (FLU-2) were used. The total volume of assay mixture amounted to 208 μl. The final concentration of carbonic anhydrase II was 10^−7 M/L, of dansylamide 2.25×10^−6 and of compounds from 10^−8 M/L up to 10^−5 M/L. Final concentration of DMSO as compound solvent was 0.1 mM. Each microplate also contained blanks without compound and enzyme, controls without compound and ethoxzolamide (final concentration 5×10^−8 M/L). All data reflect single measurements. Data were expressed as % inhibition after calculation by the formula: % inhibition=100((1−(FLU-2cpd−FLU-2blank−FLU-1cpd+FLU-1blank)/(FLU-2control−FLU-2blank−FLU-1control−FLU-1blank))
The % inhibition data for each compound and the respective final concentrations were used for IC50 calculations by using the Prism 4 software. Concentration action figures were calculated by applying the Prism algorithm for nonlinear regression (curve-fit): sigmoidal dose response with variable slope and the constraints: top: 100 and bottom 0.

C57BI/6 mice = assay: Acute in vivo food intake test in mice; conditions: 24 h food intake, C57BI/6 mice on high caloric diet, 100 mg/kg/day by oral gavage in two half doses
Procedure: 2. Acute in vivo Food Intake Test in Mice
The studies were carried out in male or female C57BI/6 mice (n=8-12 per group). The mice were kept on an inverted 12/12 h light/dark cycle (lights on 22:00). They were allowed food (high caloric diet) and water ad libitum. Food intake and water consumption was measured daily. The test compound of general Formula I was suspended in 1% methylcellulose in water and 2% (v/v) of Poloxamer 188 (Lutrol F68®) and administered by oral gavage at a dose of 100 mg/kg/day. One half of the dose was administered at 7.00-9.00 h; the remaining half of the dose was administered between 15.00-15.30 h.
In the test model described above, the test substances caused a decrease of the animals' 24 h food intake to the percentages of food intake when compared to control as given in the following Table 2.

Compound	pIC50 [1]	melting point [°C]	food intake [% of control] (C57BI/6 mice)
NS(=O)(=O)N1CCC2(CC1)CC(=O)c1cc(Cl)ccc1O2 [Example 4]	5.19		
COc1ccc2c(c1)C(=O)CC1(CCN(S(N)(=O)=O)CC1)O2 [Example 3]	5.11	172 to 177	
NS(=O)(=O)N1CCC2(CC1)CC(=O)c1ccccc1O2 [Example 1]	5.18	172 to 174	83 % of control
